Patent US20250161216A1, “CATIONIC LIPID ANALOGUES, COMPOSITIONS AND USES THEREOF” (GUANGZHOU LIDE BIOMEDICINE TECHNOLOGY CO., LTD., priority 2022, published 2025)

Tested on: C57BL/6 mice
Test: In vivo expression level of Luciferase-mRNA delivered by intravenous injection (bioluminescence imaging)
Settings: mRNA-loaded nanoparticles, intravenous (tail vein), 5 μg Luciferase-mRNA, 6 hours; for Fluorescence intensity of liver: compounds of Example 1
Description: Luciferase-mRNA was used as an mRNA model; and the cationic lipid analogues of Examples 1-5 were used to prepare drug-loaded nanoparticles according to the method of Example 6.
200 μL of nanoparticles containing 5 μg Luciferase-mRNA or the drug-loaded nanoparticles prepared above were injected into tail veins of 6-8 week-old C57BL/6 mice, and 200 μL of 1×PBS solution containing 3 mg D-Luciferin potassium salt was intraperitoneally injected into the mice 6 hours later. After waiting for 10 minutes, an in vivo expression level of the mRNA was evaluated by bioluminescence imaging.

CCCCCCCC/C=C\CCCCCCCC(=O)N(CCCN(C)C)C(C(=O)NCCN(C)CCNC(=O)C(C(C)C)N(CCCN(C)C)C(=O)CCCCCCC/C=C\CCCCCCCC)C(C)C (stereo not shown) [A1I4R2C18-1]
Bioluminescence intensity (compounds of Example 2): 8.80E+02

CCCCC/C=C\C/C=C\CCCCCCCC(=O)N(CCCN(C)C)C(C(=O)NCCN(C)CCNC(=O)C(C(C)C)N(CCCN(C)C)C(=O)CCCCCCC/C=C\C/C=C\CCCCC)C(C)C (stereo not shown) [A1I4R2C18-2]
Fluorescence intensity of spleen (compounds of Example 2): 3.18E+03

CCCCCCCCCCCCCCCCCC(=O)N(CCCN(C)C)C(C(=O)NCCN(C)CCNC(=O)C(C(C)C)N(CCCN(C)C)C(=O)CCCCCCCCCCCCCCCCC)C(C)C (stereo not shown) [A1I4R2C18]
Fluorescence intensity of spleen (compounds of Example 2): 1.79E+04

CCCCCCCC/C=C\CCCCCCCC(=O)N(CCN1CCCCCC1)C(C(=O)NCCN(C)CCNC(=O)C(C(C)C)N(CCN1CCCCCC1)C(=O)CCCCCCC/C=C\CCCCCCCC)C(C)C (stereo not shown) [A1I4R13C18-1]
Fluorescence intensity of spleen (compounds of Example 2): 2.67E+03

CCCCC/C=C\C/C=C\CCCCCCCC(=O)N(CCN1CCCCCC1)C(C(=O)NCCN(C)CCNC(=O)C(C(C)C)N(CCN1CCCCCC1)C(=O)CCCCCCC/C=C\C/C=C\CCCCC)C(C)C (stereo not shown) [A1I4R13C18-2]
Fluorescence intensity of spleen (compounds of Example 2): 2.85E+04

CCCCCCCCCCCCCCCCCC(=O)N(CCN1CCCCCC1)C(C(=O)NCCN(C)CCNC(=O)C(C(C)C)N(CCN1CCCCCC1)C(=O)CCCCCCCCCCCCCCCCC)C(C)C (stereo not shown) [A1I4R13C18]
Bioluminescence intensity (compounds of Example 2): 5.76E+02

CCCCCCCCCCCCCCCCCC(=O)N(CCC)C(C(=O)NCCN(C)CCNC(=O)C(C(C)C)N(CCC)C(=O)CCCCCCCCCCCCCCCCC)C(C)C (stereo not shown) [A1I4R21C18]
Fluorescence intensity of spleen (compounds of Example 2): 3.46E+04

CCCCCCCCCCCC(=O)N(CCO)C(C(=O)NCCN(C)CCNC(=O)C(C(C)C)N(CCO)C(=O)CCCCCCCCCCC)C(C)C (stereo not shown) [A1I4R22C12]
Fluorescence intensity of spleen (compounds of Example 2): 3.90E+03

CCCCCCCCCCCCCC(=O)N(CCO)C(C(=O)NCCN(C)CCNC(=O)C(C(C)C)N(CCO)C(=O)CCCCCCCCCCCCC)C(C)C (stereo not shown) [A1I4R22C14]
Fluorescence intensity of spleen (compounds of Example 2): 2.30E+03

CCCCCCCCCCCCCCCC(=O)N(CCO)C(C(=O)NCCN(C)CCNC(=O)C(C(C)C)N(CCO)C(=O)CCCCCCCCCCCCCCC)C(C)C (stereo not shown) [A1I4R22C16]
Fluorescence intensity of spleen (compounds of Example 2): 2.30E+03

CCCCCCCCCCCCCCCCCC(=O)N(CCO)C(C(=O)NCCN(C)CCNC(=O)C(C(C)C)N(CCO)C(=O)CCCCCCCCCCCCCCCCC)C(C)C (stereo not shown) [A1I4R22C18]
Fluorescence intensity of spleen (compounds of Example 2): 1.10E+05

CCCCCCSSCCC(=O)N(CCO)C(C(=O)NCCN(C)CCNC(=O)C(C(C)C)N(CCO)C(=O)CCSSCCCCCC)C(C)C (stereo not shown) [A1I4R22S11]
Fluorescence intensity of spleen (compounds of Example 2): 1.00E+03

CCCCCCCCSSCCC(=O)N(CCO)C(C(=O)NCCN(C)CCNC(=O)C(C(C)C)N(CCO)C(=O)CCSSCCCCCCCC)C(C)C (stereo not shown) [A1I4R22S13]
Fluorescence intensity of spleen (compounds of Example 2): 5.90E+03

CCCCCCCCCCSSCCC(=O)N(CCO)C(C(=O)NCCN(C)CCNC(=O)C(C(C)C)N(CCO)C(=O)CCSSCCCCCCCCCC)C(C)C (stereo not shown) [A1I4R22S15]
Fluorescence intensity of spleen (compounds of Example 2): 4.10E+03

CCCCCCCCCCCCSSCCC(=O)N(CCO)C(C(=O)NCCN(C)CCNC(=O)C(C(C)C)N(CCO)C(=O)CCSSCCCCCCCCCCCC)C(C)C (stereo not shown) [A1I4R22S17]
Fluorescence intensity of spleen (compounds of Example 2): 1.80E+04

CCCCCCCCCCCCCCSSCCC(=O)N(CCO)C(C(=O)NCCN(C)CCNC(=O)C(C(C)C)N(CCO)C(=O)CCSSCCCCCCCCCCCCCC)C(C)C (stereo not shown) [A1I4R22S19]
Fluorescence intensity of spleen (compounds of Example 2): 2.50E+04

CCCCCCCC(=O)N(CCO)C(C(=O)NCCN(CCNC(=O)C(C(C)C)N(CCO)C(=O)CCCCCCC)CCNC(=O)C(C(C)C)N(CCO)C(=O)CCCCCCC)C(C)C (stereo not shown) [A1I5R22C8]
Fluorescence intensity of spleen (compounds of Example 3): 1.50E+05

CCCCCCCCCC(=O)N(CCO)C(C(=O)NCCN(CCNC(=O)C(C(C)C)N(CCO)C(=O)CCCCCCCCC)CCNC(=O)C(C(C)C)N(CCO)C(=O)CCCCCCCCC)C(C)C (stereo not shown) [A1I5R22C10]
Fluorescence intensity of spleen (compounds of Example 3): 3.00E+05

CCCCCCCCCCCC(=O)N(CCO)C(C(=O)NCCN(CCNC(=O)C(C(C)C)N(CCO)C(=O)CCCCCCCCCCC)CCNC(=O)C(C(C)C)N(CCO)C(=O)CCCCCCCCCCC)C(C)C (stereo not shown) [A1I5R22C12]
Fluorescence intensity of spleen (compounds of Example 3): 2.96E+06

CCCCCCCCCCCCCCCC(=O)N(CCO)C(C(=O)NCCN(CCNC(=O)C(C(C)C)N(CCO)C(=O)CCCCCCCCCCCCCCC)CCNC(=O)C(C(C)C)N(CCO)C(=O)CCCCCCCCCCCCCCC)C(C)C (stereo not shown) [A1I5R22C16]
Fluorescence intensity of spleen (compounds of Example 3): 4.10E+05

CCCCC/C=C\C/C=C\CCCCCCCC(=O)N(CCO)C(C(=O)NCCN(CCNC(=O)C(C(C)C)N(CCO)C(=O)CCCCCCC/C=C\C/C=C\CCCCC)CCNC(=O)C(C(C)C)N(CCO)C(=O)CCCCCCC/C=C\C/C=C\CCCCC)C(C)C (stereo not shown) [A1I5R22C18-2]
Fluorescence intensity of spleen (compounds of Example 3): 6.90E+05

CCCCCCCCCCCCCCCCCC(=O)N(CCO)C(C(=O)NCCN(CCNC(=O)C(C(C)C)N(CCO)C(=O)CCCCCCCCCCCCCCCCC)CCNC(=O)C(C(C)C)N(CCO)C(=O)CCCCCCCCCCCCCCCCC)C(C)C (stereo not shown) [A1I5R22C18]
Fluorescence intensity of spleen (compounds of Example 3): 1.10E+05

CCCCCCSSCCC(=O)N(CCO)C(C(=O)NCCN(CCNC(=O)C(C(C)C)N(CCO)C(=O)CCSSCCCCCC)CCNC(=O)C(C(C)C)N(CCO)C(=O)CCSSCCCCCC)C(C)C (stereo not shown) [A1I5R22S11]
Fluorescence intensity of spleen (compounds of Example 3): 1.30E+05

CCCCCCCCCCCCSSCCC(=O)N(CCO)C(C(=O)NCCN(CCNC(=O)C(C(C)C)N(CCO)C(=O)CCSSCCCCCCCCCCCC)CCNC(=O)C(C(C)C)N(CCO)C(=O)CCSSCCCCCCCCCCCC)C(C)C (stereo not shown) [A1I5R22S17]
Fluorescence intensity of spleen (compounds of Example 3): 6.40E+05

CCCCCCCCCCCCCCSSCCC(=O)N(CCO)C(C(=O)NCCN(CCNC(=O)C(C(C)C)N(CCO)C(=O)CCSSCCCCCCCCCCCCCC)CCNC(=O)C(C(C)C)N(CCO)C(=O)CCSSCCCCCCCCCCCCCC)C(C)C (stereo not shown) [A1I5R22S19]
Fluorescence intensity of spleen (compounds of Example 3): 1.80E+06

CCCCCCCCCCCCN(C(=O)CO)C(C(=O)NCCN(CCNC(=O)C(C(C)C)N(CCCCCCCCCCCC)C(=O)CO)CCNC(=O)C(C(C)C)N(CCCCCCCCCCCC)C(=O)CO)C(C)C (stereo not shown) [A1I5R50C21]
Fluorescence intensity of spleen (compounds of Example 3): 3.60E+06

CCCCCCCC/C=C\CCCCCCCC(=O)N(CCN(C)C)C(C(=O)NCCCCCCCCCCCCCCCCCC)C(C)C (stereo not shown) [A1I18R1C18-1]
Fluorescence intensity of liver: 5.08E+05

CCCCC/C=C\C/C=C\CCCCCCCC(=O)N(CCN(C)C)C(C(=O)NCCCCCCCCCCCCCCCCCC)C(C)C (stereo not shown) [A1I18R1C18-2]
Fluorescence intensity of liver: 2.27E+05

CC/C=C\C/C=C\C/C=C\CCCCCCCC(=O)N(CCN(C)C)C(C(=O)NCCCCCCCCCCCCCCCCCC)C(C)C (stereo not shown) [A1I18R1C18-3]
Fluorescence intensity of liver: 1.88E+06

CCCCCCCCCCCCCCCCCCNC(=O)C(C(C)C)N(CCN(C)C)C(=O)CCCCCCCCCCCCCCCCC (stereo not shown) [A1I18R1C18]
Fluorescence intensity of liver: 6.37E+03

CCCCCCCCCCCCC#CC#CCCCCCCCCC(=O)N(CCN(C)C)C(C(=O)NCCCCCCCCCCCCCCCCCC)C(C)C (stereo not shown) [A1I18R1C23]
Fluorescence intensity of liver: 9.51E+05

CCCCCCCC/C=C\CCCCCCCC(=O)N(CCCN(C)C)C(C(=O)NCCCCCCCCCCCCCCCCCC)C(C)C (stereo not shown) [A1I18R2C18-1]
Fluorescence intensity of liver: 2.63E+04

CC/C=C\C/C=C\C/C=C\CCCCCCCC(=O)N(CCCN(C)C)C(C(=O)NCCCCCCCCCCCCCCCCCC)C(C)C (stereo not shown) [A1I18R2C18-3]
Fluorescence intensity of liver: 6.77E+04

CCCCCCCCCCCCC#CC#CCCCCCCCCC(=O)N(CCCN(C)C)C(C(=O)NCCCCCCCCCCCCCCCCCC)C(C)C (stereo not shown) [A1I18R2C23]
Fluorescence intensity of liver: 2.70E+05

CCCCCCCC/C=C\CCCCCCCC(=O)N(CCCN(CC)CC)C(C(=O)NCCCCCCCCCCCCCCCCCC)C(C)C (stereo not shown) [A1I18R3C18-1]
Fluorescence intensity of liver: 9.29E+03

CCCCC/C=C\C/C=C\CCCCCCCC(=O)N(CCCN(CC)CC)C(C(=O)NCCCCCCCCCCCCCCCCCC)C(C)C (stereo not shown) [A1I18R3C18-2]
Fluorescence intensity of liver: 1.48E+05

CC/C=C\C/C=C\C/C=C\CCCCCCCC(=O)N(CCCN(CC)CC)C(C(=O)NCCCCCCCCCCCCCCCCCC)C(C)C (stereo not shown) [A1I18R3C18-3]
Fluorescence intensity of liver: 2.22E+04

CCCCCCCCCCCCCCCCCCNC(=O)C(C(C)C)N(CCCN(CC)CC)C(=O)CCCCCCCCCCCCCCCCC (stereo not shown) [A1I18R3C18]
Fluorescence intensity of liver: 3.91E+03

CCCCCCCCCCCCC#CC#CCCCCCCCCC(=O)N(CCCN(CC)CC)C(C(=O)NCCCCCCCCCCCCCCCCCC)C(C)C (stereo not shown) [A1I18R3C23]
Fluorescence intensity of liver: 7.67E+04

CCCCCCCC/C=C\CCCCCCCC(=O)N(CCCN(C)C)C(C(=O)NCCN(C)CCNC(=O)C(C(CC)CCCC)N(CCCN(C)C)C(=O)CCCCCCC/C=C\CCCCCCCC)C(CC)CCCC (stereo not shown) [A4I4R2C18-1]
Fluorescence intensity of spleen (compounds of Example 2): 1.13E+03

CCCCC/C=C\C/C=C\CCCCCCCC(=O)N(CCCN(C)C)C(C(=O)NCCN(C)CCNC(=O)C(C(CC)CCCC)N(CCCN(C)C)C(=O)CCCCCCC/C=C\C/C=C\CCCCC)C(CC)CCCC (stereo not shown) [A4I4R2C18-2]
Fluorescence intensity of spleen (compounds of Example 2): 1.86E+04

CCCCCCCCCCCCCCCCCC(=O)N(CCCN(C)C)C(C(=O)NCCN(C)CCNC(=O)C(C(CC)CCCC)N(CCCN(C)C)C(=O)CCCCCCCCCCCCCCCCC)C(CC)CCCC (stereo not shown) [A4I4R2C18]
Fluorescence intensity of spleen (compounds of Example 2): 2.24E+03

CCCCCCCC/C=C\CCCCCCCC(=O)N(CCN1CCCCCC1)C(C(=O)NCCN(C)CCNC(=O)C(C(CC)CCCC)N(CCN1CCCCCC1)C(=O)CCCCCCC/C=C\CCCCCCCC)C(CC)CCCC (stereo not shown) [A4I4R13C18-1]
Fluorescence intensity of spleen (compounds of Example 2): 1.59E+03

CCCCC/C=C\C/C=C\CCCCCCCC(=O)N(CCN1CCCCCC1)C(C(=O)NCCN(C)CCNC(=O)C(C(CC)CCCC)N(CCN1CCCCCC1)C(=O)CCCCCCC/C=C\C/C=C\CCCCC)C(CC)CCCC (stereo not shown) [A4I4R13C18-2]
Fluorescence intensity of spleen (compounds of Example 2): 1.19E+04

CCCCCCCCCCCCCCCCCC(=O)N(CCN1CCCCCC1)C(C(=O)NCCN(C)CCNC(=O)C(C(CC)CCCC)N(CCN1CCCCCC1)C(=O)CCCCCCCCCCCCCCCCC)C(CC)CCCC (stereo not shown) [A4I4R13C18]
Fluorescence intensity of spleen (compounds of Example 2): 2.79E+03

CCCCCCCC/C=C\CCCCCCCC(=O)N(CCC)C(C(=O)NCCN(C)CCNC(=O)C(C(CC)CCCC)N(CCC)C(=O)CCCCCCC/C=C\CCCCCCCC)C(CC)CCCC (stereo not shown) [A4I4R21C18-1]
Fluorescence intensity of spleen (compounds of Example 2): 3.02E+04
